Patent US5593991A, “Imidazole compounds, use and process of making” (priority 1995, dated 1997)

Test system: human PGHS-2 protein expression
Experiment: Prostoglandin endoperoxide synthase-2 (PGHS-2) protein expression in LPS stimulated human monocytes
Format: cell-based
Conditions: for inhibition of LPS induced PGHS-2 protein expression (inactive): up to 10 uM; for inhibited LPS induced PGHS-2 protein expression (active): rank order potency similar to that for inhibiting cytokine production
Protocol: The following assay describes a method for determining the inhibitory effects of compounds of Formula (I) on human PGHS-2 protein expression in LPS stimulated human monocytes
Human peripheral blood monocytes were isolated from buffy coats by centrifugation through Ficoll and Percoll gradients. Cells were seeded at 2×10^6 /well in 24 well plates and allowed to adhere for 1 hour in RPMI supplemented with 1% human AB serum, 20 mM L-glutamine, Penicillin-Streptomycin and 10 mM HEPES. Compounds were added at various concentrations and incubated at 37° C. for 10 minutes. LPS was added at 50 ng/well (to induce enzyme expression) and incubated overnight at 37° C. The supernatant was removed and cells washed once in cold PBS. The cells were lysed in 100 μl of cold lysis buffer(50 mM Tris/HCl pH 7.5, 150 mM NaCl, 1% NP40, 0.5% sodium deoxycholate, 0.1% SDS, […] DNAse, 0.1% TRITON X-100, 1 mM PMSF, 1 mM leupeptin, 1 mM pepstatin). The lysate was centrifuged (10,000×g for 10 min. at 4° C.) to remove debris and the soluble fraction was subjected to SDS PAGE. analysis (12% gel). Protein separated on the gel were transferred onto nitrocellulose membrane by electrophoretic means for 2 hours at 60 volts. The membrane was pretreated for one hour in PBS/0.1% Tween 20 with 5% non-fat dry milk. After washing 3 times in PBS/Tween buffer, the membrane was incubated with a 1:2000 dilution of a monospecific antiserum to PGHS-2 or a 1:1000 dilution of an antiserum to PGHs-1 in PBS/Tween with 1% BSA for one hour with continuous shaking. The membrane was washed 3X in PBS/Tween and then incubated with a 1:3000 dilution of horseradish peroxidase conjugated donkey antiserum to rabbit Ig (Amersham) in PBS/Tween with 1% BSA for one hour with continuous shaking. The membrane was then washed 3X in PBS/Tween and the ECL immunodetection system (Amersham) was used to detect the level of expression of prostaglandin endoperoxide synthases-2.

Structure (SMILES) | inhibition of LPS induced PGHS-2 protein expression (inactive) | inhibited LPS induced PGHS-2 protein expression (active)
C[S+]([O-])c1ccc(-c2nc3n(c2-c2ccncc2)CCC3)cc1 (stereo not shown) [2-(4-Methylsulfinylphenyl)-3-(4-pyridyl)-6,7-dihydro-(5H)-pyrrolo[1,2-a]imidazole] | inactive | –
Fc1ccc(-c2nc3n(c2-c2ccncc2)CCS3)cc1 [6-(4-Fluorophenyl)-2,3-dihydro-5-(4-pyridinyl)imidazo[2,1-b]thiazole] | – | active
C[C@@H]1C[C@H]2[C@@H]3CCC4=CC(=O)C=C[C@]4(C)[C@@]3(F)[C@@H](O)C[C@]2(C)[C@@]1(O)C(=O)CO [Dexamethasone] | – | active
Fc1ccc(-c2ncn(CCCN3CCOCC3)c2-c2ccncc2)cc1 [Example 1, 1-[3-(4-Morpholinyl)propyl]-4-(4-fluorophenyl)-5-(4-pyridyl)imidazole] | – | active
CC(Cc1ccc(O)c(O)c1)C(C)Cc1ccc(O)c(O)c1 (stereo not shown) [NDGA] | inactive | –
O=C1CCN(c2ccccc2)N1 [phenidone] | inactive | –
COc1ccc(C2CNC(=O)C2)cc1OC1CCCC1 (stereo not shown) [rolipram] | inactive | –
